Experimental data as given in patent US20070203212A1, “METHOD OF TREATING OSTEOARTHRITIS” (WARNER-LAMBERT COMPANY, priority 2002, published 2007).

Tests used:
[1] = tested on: monosodium iodoacetate (MIA)-induced osteoarthritis; experiment: MIA rat model, acute single oral dose: change in hind paw weight distribution (joint pain); assay type: in vivo; settings: for Day 7 2 hr. (% ± SEM) inhibition of MIA-induced change in hind paw weight distribution / Day 7 4 hr. (% ± SEM) inhibition of MIA-induced change in hind paw weight distribution / Day 7 6 hr. (% ± SEM) inhibition of MIA-induced change in hind paw weight distribution / Day 14 2 hr. (% ± SEM) inhibition of MIA-induced change in hind paw weight distribution / Day 14 4 hr. (% ± SEM) inhibition of MIA-induced change in hind paw weight distribution / Day 14 6 hr. (% ± SEM) inhibition of MIA-induced change in hind paw weight distribution: single oral dose 30 mg/kg; for Day 7 2 hr. (% ± SEM) inhibition of MIA-induced change in hind paw weight distribution: Day 7, 2 hours post dose; for Day 7 4 hr. (% ± SEM) inhibition of MIA-induced change in hind paw weight distribution: Day 7, 4 hours post dose; for Day 7 6 hr. (% ± SEM) inhibition of MIA-induced change in hind paw weight distribution: Day 7, 6 hours post dose; for Day 14 2 hr. (% ± SEM) inhibition of MIA-induced change in hind paw weight distribution: Day 14, 2 hours post dose; for Day 14 4 hr. (% ± SEM) inhibition of MIA-induced change in hind paw weight distribution: Day 14, 4 hours post dose; for Day 14 6 hr. (% ± SEM) inhibition of MIA-induced change in hind paw weight distribution: Day 14, 6 hours post dose
Procedure: (§1) It should be appreciated that in Biological Methods 1, 2, 4, and 5 below, hind paw weight bearing differentials between the paw of the limb having the control joint (in animals administered test compound vehicle only) and the paw of the limb having the contralateral test joint (in control or inducement animals administered test compound vehicle only and in treatment animals administered test compound dissolved in test compound vehicle) were determined using an incapacitance tester, model 2KG (Linton Instrumentation, Norfolk, United Kingdom). The incapacitance tester has a chamber on top with an outwardly sloping front wall that supports a rat's front limbs, and two weight sensing pads, one for each hind paw, that facilitates this determination. The hind paw weight bearing differentials were expressed in grams and calculated as follows: (the average weight in grams placed on the control limb minus the average weight in grams placed on the contralateral test limb for each of the inducement or treatment animals) minus (the average weight in grams placed on the control limb minus the average weight in grams placed on the contralateral test limb for each of the control animals). All results were statistically analyzed by comparing the average results for an induction or treatment group with the average result for its control group at the same time point using analysis of covariance (“ANCOVA”) followed by the Hoehberg's procedure and those with statistical significance had p<0.05 unless otherwise noted.
The rats were anesthetized with 5% volume/volume (“v/v”) isoflurane gas and maintained with 2% v/v isoflurane gas. The anesthetized rats were given a single intra-articular injection of 1 mg of MIA through the infrapatellar ligament of the right knee. MIA was dissolved in physiologic saline and administered in a volume of 50 μL. The contralateral control knee was injected with 50 μL of physiologic saline. Administration of isoflurane gas was discontinued, and the rats became fully conscious about 5 minutes later.
Shifts in hind paw weight distribution from the right to the left hind paws supporting the right (arthritic) and the left (contralateral control) hind leg knee joints were utilized as an index of joint pain and as a measure of compound efficacy. An incapacitance tester (Model 2KG, Linton Instrumentation, UK) was employed for determination of hind paw weight distribution. Each data point is the mean of three readings of 5 seconds duration.
CI-1027 (i.e., 6-(5-carboxy-5-methyl-hexyloxy)-2,2-dimethyl-hexanoic acid, calcium salt) was dissolved in hydroxypropylmethylcellulose (“HPMC”) vehicle (0.05% HPMC+0.2% Tween 80; compound amount was adjusted based on the percent of free acid, i.e., 6-(5-carboxy-5-methyl-hexyloxy)-2,2-dimethyl-hexanoic acid).
[…] Rats were then given a single, 10, 30, or 100 mg/kg, dose of CI-1027 via oral gavage (PO). Changes in hind paw weight distribution were determined 2, 4 and 6 hours post-compound administration.
6-(5-carboxy-5-methyl-hexyloxy)-2,2-dimethyl-hexanoic acid, calcium salt (“CI-1027”) and rofecoxib was tested in the rat MIA model in an acute dosing paradigm as described previously. MIA was injected into the right knee and saline into the left knee of all rats on Day 0. […] Two hours later, the rats were reassessed. The results for inhibition of pain, expressed as a percentage±standard error of the mean, are shown below in Table 5. The percent inhibition of pain was determined as described above in Biological Method 1. […] N=8 rats per group.

[2] = tested on: carrageenan-induced thermal hyperalgesia; experiment: Carrageenan-induced thermal hyperalgesia (CITH), paw withdrawal latency; assay type: in vivo, rat; settings: Day 1
Procedure: Male Sprague Dawley rats (200-300 g), obtained from Charles River, were housed in groups of 2 under a 12 hour light/dark cycle with food and water ad libitum. Animals were allowed to acclimate to the test room one hour prior to testing.
Thermal hyperalgesia was assessed using the rat plantar test (apparatus from Univ. California, San Diego) following a modified method of Hargreaves et al., 1988. Rats were habituated to the apparatus, which consisted of three perspex boxes that individually housed […] on an elevated glass table. A mobile radiant heat source (halogen lamp) was located under the glass table and focused onto the hind paw. Paw withdrawal latencies (PWL) were recorded in seconds (“s”). An automatic cut off point of 22.5 s was set to prevent tissue damage. The mean of 2-3 PWL was taken at each time point for both hind paws of each animal. The apparatus was calibrated to give a PWL of approximately 10 s before carrageenan administration.
After basal PWL were determined, animals receive an intraplantar 100 μL of 10 mg/mL) into the right hind paw. Lambda carrageenan (Sigma Chemical Co.) was dissolved in isotonic saline 5 minutes prior to injecting. PWL were reassessed following the same protocol 2 hours post carrageenan (this time point represented the start of peak hyperalgesia) to ascertain that hyperalgesia had developed. 6-(5-Carboxy-5-methyl-hexyloxy)-2,2-dimethyl-hexanoic acid, calcium salt was then administered orally via oral dosing needles 2.5 hours post carrageenan injection, and PWL were taken again at 30- or 60-minute intervals post drug administration for 6 hours.
Data consisted of the mean of 2-3 reads/paw for individual animals. Group data was the compiled individual means. Percent inhibition was calculated as follows for each time point: (mean drug treated−mean control)/(mean baseline−mean control)×100.

[3] = tested on: human recombinant IL-6/IL-6sR induced joint pain; experiment: IL-6 with IL-6 soluble receptor induced joint pain in rat; assay type: in vivo; settings: single oral dose 30 mg/kg
Procedure: as §1
Human recombinant IL-6 (100 ng per rat; R&D Systems, Minneapolis, Minn.) was incubated at room temperature with human recombinant IL-6 soluble receptor (300 ng per rat; R&D Systems, Minneapolis, Minn.) in phosphate buffered saline (“PBS”) for 15 minutes prior to injection. Rats were anesthetized with 5% volume/volume (“v/v”) isoflurane gas and maintained with 2% v/v isoflurane gas. The anesthetized rats were given a single intra-articular injection of IL-6/WL-6sR through the infrapatellar ligament of the right knee in a volume of 50 μL. The contralateral control knee was injected with 50 μL of PBS. Administration of isoflurane gas was discontinued, and the rats became fully conscious about 5 minutes later.
Shifts in hind paw weight distribution from the right (arthritic) to the left (contralateral control) paws were utilized as an index of joint pain and as a measure of compound efficacy. An incapacitance tester (Model 2KG, Linton Instrumentation, UK) was employed for determination of hind paw weight distribution. Each data point is the mean of three, 5-second readings.
CI-1027 was dissolved in BPMC vehicle as described above. Baseline changes in hind paw weight distribution readings were determined one day prior to injection of IL-6/IL-6sR. On the day of the experiment (Day 0), a single dose of CI-1027 (10, 30 or 100 mg/kg) was given via oral gavage 3 hours prior to injection of IL-6/IL-6sR (n=10 rats per group). Changes in hind paw weight distribution were determined one, three, and six hours after injection of IL-6/IL-6sR.
In Table 4 below, data from the method of Biological Method 5 are expressed as a percent inhibition of a change in hind paw weight distribution ± the standard error of the mean. The percents inhibition were calculated as follows. Percent inhibition of a change in hind paw weight distribution [formula] wherein: ΔWC is the hind-paw weight differential between the healthy limb and the hrIL-6+ hrIL-6sR injected limb of the control animal group administered vehicle alone, as measured at time 1, 3, or 6 hours post injection; and
ΔWG is the hind-paw weight differential between the healthy limb and the hrIL-6+ hrIL-6sR injected limb of a treatment animal group as measured at time 1, 3, or 6 hours post injection.

[4] = tested on: monoclonal antibody-induced arthritis; experiment: Monoclonal antibody-induced arthritis (MAIA) mouse model, footpad and ankle swelling; assay type: in vivo; parameters: footpad and ankle swelling: dose or concentration left out as unconfirmed; settings: BALB/c mice
Procedure: In a typical MAIA experiment, groups of four mice were injected intraperitoneally (“i.p.”) with 0.4 mL (BALB/c and DBA/1 strains) or 0.8 mL (C57BL/6, 129X1/SvJ, C3H/HeJ, and C3H/FeJ strains) with a 10 mg/mL solution of Arthrogen-CIA Monoclonal Antibody Blend (Chemicon International, Inc.). Two days later, the mice were injected i.p. with 0.2 mL of a 0.25 mg/mL solution of LPS (lipopolysaccharide form Escherichia coli (“E. coli”) strain 0111B4) in PBS. Footpad and ankle size was assessed using a Dyer Digital Caliper (#655-030-4916) on the day of mAb injection, and every two days following LPS injection.

| SMILES | Day 7 2 hr. (% ± SEM) inhibition of MIA-induced change in hind paw weight distribution [1] | Day 7 4 hr. (% ± SEM) inhibition of MIA-induced change in hind paw weight distribution [1] [%] | Day 7 6 hr. (% ± SEM) inhibition of MIA-induced change in hind paw weight distribution [1] [%] | Day 14 2 hr. (% ± SEM) inhibition of MIA-induced change in hind paw weight distribution [1] [%] | Day 14 4 hr. (% ± SEM) inhibition of MIA-induced change in hind paw weight distribution [1] [%] | Day 14 6 hr. (% ± SEM) inhibition of MIA-induced change in hind paw weight distribution [1] [%] | CITH (%) percentage inhibition, paw withdrawal latency ([2]; single oral dose 30 mg/kg) [%] | CITH (%) percentage inhibition, paw withdrawal latency ([2]; single oral dose 100 mg/kg) [%] | 1 hr. (% ± SEM) inhibition of (IL-6/IL-6sR)-induced change in hind paw weight distribution ([3]; Day 1, 1 hour post injection of IL-6/IL-6sR) [%] | 3 hr. (% ± SEM) inhibition of (IL-6/IL-6sR)-induced change in hind paw weight distribution ([3]; Day 1, 3 hours post injection of IL-6/IL-6sR) [%] | 6 hr. (% ± SEM) inhibition of (IL-6/IL-6sR)-induced change in hind paw weight distribution ([3]; Day 1, 6 hours post injection of IL-6/IL-6sR) [%] | Mean pain alleviation at 2 hours post administration (% ± SEM) ([1]; rofecoxib 3 mg/kg PO alone, Day 14) [%] | footpad and ankle swelling [4] |
| --- | --- | --- | --- | --- | --- | --- | --- | --- | --- | --- | --- | --- | --- |
| CC(C)(CCCCCCCCCC(C)(C)C(=O)O)C(=O)O [A4, 2,2,12,12-tetramethyltridecanedioic acid] | 25 ± 5% | 38 ± 7 | 43 ± 6 | 35 ± 6 | 29 ± 8 | 55 ± 7 | 118 | 115 | 70 ± 9 | 79 ± 5 | 26 ± 6 | – | – |
| CC(C)(CCCOCCCC(C)(C)C(=O)O)C(=O)O [A2, 5,5′-oxybis(2,2-dimethylpentanoic acid)] | −11 ± 15^ % | 16 ± 15 | – | 9 ± 13 | 9 ± 20 | – | −3 | – | – | – | – | – | – |
| CS(=O)(=O)c1ccc(C2=C(c3ccccc3)C(=O)OC2)cc1 [Rofecoxib, reference compound] | – | – | – | – | – | – | – | – | – | – | – | 23 ± 7 | – |
| CC(C)(CCCCCOCCCCCC(C)(C)C(=O)O)C(=O)O [A1, 7,7′-oxybis(2,2-dimethylheptanoic acid)] | 50 ± 11% | 15 ± 14 | – | −3 ± 15 | −9 ± 17 | – | 22 | – | – | – | – | – | – |
| CN(Cc1cnc2nc(N)nc(N)c2n1)c1ccc(C(=O)N[C@@H](CCC(=O)O)C(=O)O)cc1 [methotrexate, N-[4-[[(2,4-diamino-6-pteridinyl)methyl]methylamino]benzoyl]-L-glutamic acid, reference compound] | – | – | – | – | – | – | – | – | – | – | – | – | significantly inhibit footpad and ankle swelling |
| CC(C)(CCOCCC(C)(C)C(=O)O)C(=O)O [A3, 4,4′-oxybis(2,2-dimethylbutanoic acid)] | 20 ± 4% | 34 ± 5 | 81 ± 6 | 33 ± 7 | 36 ± 3 | 27 ± 9 | 20 | – | – | – | – | – | – |
